# Reference: patent US9930888B2, “Composition” (Conopco, Inc., priority 2013, dated 2018)
# What was measured:
# [1] = solubility of lactam in candidate solubilisers (magnetic stirring or ultrasonic mixing); format: physicochemical
# Procedure: An Ultrasonic mixer was used to obtain determine solubility.
# We used a Hielscher UP200S (200W) Sonic Tip on batches of 5-20 ml. We sonicated for up to 60 minutes.
# We then tested the candidate solubilisers with 1% lactam, both with 72 hours high speed magnetic stirring (with held temperature of ˜500 in the cases of solubilisers that solidify alone at room temperature) and also 20 minutes Sonication.
# In each case we incorporated the lactam powder into the solubilisers (at the levels indicated in the below table) using high speed stirring to avoid lumps from forming. Once the powder was added, the described mixing method (either continued high speed stirring or Ultrasonic mixing) commenced. In the cases of Sorbitan Oleate and Polysorbate-60, we applied initial heating to approx. 500 to ensure the solubilisers were fully liquid prior to commencing addition of the lactam. Both of these materials are non-flowing at room temperature. PEG-40 Hydrogenated Castor required initial heating to ˜350 to ensure complete fluidity prior to commencing.
# S. epidermidis = test: bacterial respiration of S. epidermidis suspension in microplate; format: cell-based; details: lactam pre-blended with hydrotrope, added to remainder of composition, diluted to 11.5 ppm and 0.575 ppm; 20 hours
# Procedure: Test samples were diluted in sterile water to achieve a 11.5 ppm level of lactam. Dilute solution (80 μl) was added to a S. epidermidis suspension (20 μl) of bacteria at a concentration of 8 logs in a microplate. Growth media (100 μl tryptone soya broth) was added to each well of the microplate and incubated for 20 hours. Bacterial respiration was measured every 30 minutes and the results were: • A—lactam+hydrotrope only (respiration of surviving bacteria detected ˜4-5 h) • B—lactam added directly to base formulation (which contains MPG)—no pre-mixing prior to addition (respiration of surviving bacteria detected 4-5 hrs) • C—lactam pre-mixed with hydrotrope and then added to base formulation (respiration of surviving bacteria not detected—20 hrs is max detection time) • D—hydrotrope added to base formulation (respiration of surviving bacteria detected 3-4 hrs). The example below is from data obtained when pre-blending lactams with hydrotrope before adding to the remainder of the composition, and diluting to 11.5 ppm and 0.575 ppm in sterile water in order to assess efficacy against S. epidermidis suspension Dilute solution (80 μl) was added to a S. epidermidis suspension (20 μl) of bacteria at a concentration of 8 logs in a microplate. Growth media (100 μl tryptone soya broth) was added to each well of the microplate and incubated for 20 hours. Bacterial respiration was measured every 30 minutes. Data of the test samples were then compared to un-treated cell suspensions (sterile water added instead of test samples) and percent inhibition calculated.
# [2] = solubility of lactam in candidate solubilisers (magnetic stirring or ultrasonic mixing); format: physicochemical; details: 1% lactam in PEG-40 Hydrogenated Castor Oil; Magnetic stirring 24 hours
# [3] = appearance of lactam solution when added to base formulation at 5%; format: physicochemical; details: 3% lactam in PEG-60 Hydrogenated Castor Oil; Magnetic stirring 1 hour
# Source text: We ensured the lactam solutions were fully uniform through constant mechanical agitation (to avoid the settling of any unsolubilised lactam material) and added them to base using slow speed stirring to incorporate them without generating aeration.
compound,measurement,setting,value
C=C1NC(=O)C=C1c1ccccc1 [5-methylene-4-phenyl-1H-pyrrol-2(5H)-one],Observations of solvent solution: % of lactam solubilised,"[1]; 1% lactam in 3-Methoxy-3-methyl-1-butanol, 20 minutes sonication, temp reached 60-70 C., forced",~5% of lactam
same,Observations of solvent solution,"[1]; 1% lactam in 3-Methoxy-3-methyl-1-butanol, Magnetic stirring 72 hours",No solubility
same,Observations of solvent solution,"[1]; 1% lactam in Diglycerin, 20 minutes sonication, temp reached 60-70 C.",No solubility
same,Observations of solvent solution,"[1]; 1% lactam in Diglycerin, Magnetic stirring 72 hours",No solubility
same,Observations of solvent solution: % of lactam solubilised,"[1]; 1% lactam in Isopentyldiol, 20 minutes sonication, temp reached 60-70 C., forced",~5% of lactam
same,Observations of solvent solution,"[1]; 1% lactam in Isopentyldiol, Magnetic stirring 72 hours",No solubility
same,Observations of solvent solution: % of lactam solubilised,"[1]; 1% lactam in PEG-40 Hydrogenated Castor Oil, Magnetic stirring 72 hours",~90% of lactam
same,Observations of solvent solution: % of lactam solubilised,"[1]; 1% lactam in PEG-40 Hydrogenated Castor Oil, Magnetic stirring 72 hours with temp. at 50 C.",~99% of lactam
same,Observations of solvent solution: % of lactam solubilised,"[1]; 1% lactam in PEG-60 Hydrogenated Castor Oil, 20 minutes sonication, temp reached 60-70 C.",~25% of lactam
same,Observations of solvent solution: % of lactam solubilised,"[1]; 1% lactam in PEG-60 Hydrogenated Castor Oil, Magnetic stirring 72 hours at 50 C.",~25% of lactam
same,Observations of solvent solution: % of lactam solubilised,"[1]; 1% lactam in Pentylene Glycol, 20 minutes sonication, temp reached 60-70 C.",~5% of lactam
same,Observations of solvent solution: % of lactam solubilised,"[1]; 1% lactam in Pentylene Glycol, Magnetic stirring 72 hours",~5% of lactam
same,Observations of solvent solution: % of lactam solubilised,"[1]; 1% lactam in Polysorbate 20, Magnetic stirring 24 hours",~75% of lactam
same,Observations of solvent solution: % of lactam solubilised,"[1]; 1% lactam in Polysorbate 20, Magnetic stirring 72 hours",~95% of lactam
same,Observations of solvent solution: % of lactam solubilised,"[1]; 1% lactam in Polysorbate 60, 20 minutes sonication, temp reached 60-70 C.",~25% of lactam
same,Observations of solvent solution: % of lactam solubilised,"[1]; 1% lactam in Polysorbate 60, Magnetic stirring 72 hours at 50 C.",~25% of lactam
same,Observations of solvent solution: % of lactam solubilised,"[1]; 1% lactam in Polysorbate 80, 20 minutes sonication, temp reached 60-70 C.",~25% of lactam
same,Observations of solvent solution: % of lactam solubilised,"[1]; 1% lactam in Polysorbate 80, Magnetic stirring 72 hours at 50 C.",~25% of lactam
same,Observations of solvent solution: % of lactam solubilised,"[1]; 1% lactam in Sisterna SP30-C, 20 minutes sonication, temp reached 60-70 C.",~25% of lactam
same,Observations of solvent solution: % of lactam solubilised,"[1]; 1% lactam in Sisterna SP30-C, Magnetic stirring 72 hours at 50 C.",~25% of lactam
same,Observations of solvent solution: % of lactam solubilised,"[1]; 1% lactam in Sisterna SP50-C, 20 minutes sonication, temp reached 60-70 C.",~25% of lactam
same,Observations of solvent solution: % of lactam solubilised,"[1]; 1% lactam in Sisterna SP50-C, Magnetic stirring 72 hours at 50 C.",~25% of lactam
same,Observations of solvent solution: % of lactam solubilised,"[1]; 1% lactam in Sisterna SP70-C, 20 minutes sonication, temp reached 60-70 C.",~25% of lactam
same,Observations of solvent solution: % of lactam solubilised,"[1]; 1% lactam in Sisterna SP70-C, Magnetic stirring 72 hours at 50 C.",~25% of lactam
same,Observations of solvent solution: % of lactam solubilised,"[1]; 1.5% lactam in Polysorbate 20, 20 minutes sonication, temp reached 60-70 C.",~75% of lactam
same,Observations of solvent solution: % of lactam solubilised,"[1]; 1.5% lactam in Polysorbate 20, 60 minutes sonication, temp reached 80-90 C., dark brown colour",~95% of lactam
same,Observations of solvent solution: % of lactam solubilised,"[1]; 1.5% lactam in Polysorbate 20, Magnetic stirring 48 hours",~50% of lactam
same,Observations of solvent solution: % of lactam solubilised,"[1]; 1.5 lactam in Polysorbate 20, Magnetic stirring, heated to 50 C. 72 hours",~75% of lactam
same,Observations of solvent solution: % of lactam appeared to solubilise,"[1]; 2.1% lactam in PEG-40 Hydrogenated Castor Oil, 20 minutes sonication, temp reached 80 C., small amount of 'burnt' spots visible",90% of lactam
same,Observations of solvent solution,"[1]; 2.1% lactam in PEG-40 Hydrogenated Castor Oil, 60 minutes sonication, temp reached 110 C., very dark colour",lactam solubilised.
same,Observations of solvent solution: % of lactam solubilised,"[1]; 2.1% lactam in PEG-40 Hydrogenated Castor Oil, Magnetic stirring 24 hours",~50% of lactam
same,Observations of solvent solution: % of lactam solubilised,"[1]; 2.1% lactam in PEG-40 Hydrogenated Castor Oil, Magnetic stirring 48 hours",~75% of lactam
same,Observations of solvent solution: % of lactam solubilised,"[1]; 2.1% lactam in PEG-40 Hydrogenated Castor Oil, Magnetic stirring, heated to 50 C. 8 hours",~50% of lactam
same,Observations of solvent solution: % of lactam solubilised,"[1]; 2.1% lactam in Polysorbate 20, 20 minutes sonication, temp reached 60-70 C., dark colour formed",~90% of lactam
same,Observations of solvent solution: % of lactam solubilised,"[1]; 2.1% lactam in Polysorbate 20, 60 minutes sonication, temp reached 80 C.",90% of lactam
same,Observations of solvent solution: % of lactam solubilised,"[1]; 2.1% lactam in Polysorbate 20, 60 minutes sonication, temp reached 90-100 C.",90% of lactam
same,Observations of solvent solution: % of lactam solubilised,"[1]; 2.1% lactam in Polysorbate 20, Magnetic stirring 24 hours",~50% of lactam
same,Observations of solvent solution: % of lactam solubilised,"[1]; 2.1% lactam in Polysorbate 20, Magnetic stirring 48 hours",~75% of lactam
same,Observations of solvent solution: % of lactam solubilised,"[1]; 2.1% lactam in Polysorbate 20, Magnetic stirring, heated to 50 C. 8 hours",~50% of lactam
same,Observations of solvent solution: % of lactam solubilised,"[1]; 2.1% lactam in Polysorbate 20, Magnetic stirring, heated to 50 C. 72 hours",~75% of lactam
same,Observations of solvent solution,"[1]; 3% lactam in Diglycerin, Magnetic stirring 1 hour",No solubility
same,Observations of solvent solution: % of lactam solubilised,"[1]; 3% lactam in Dipropylene Glycol, Magnetic stirring 1 hour",~5% of lactam
same,Observations of solvent solution,"[1]; 3% lactam in Hexylene Glycol, Magnetic stirring 1 hour",No solubility
same,Observations of solvent solution,"[1]; 3% lactam in Isopentyldiol, Magnetic stirring 1 hour",No solubility
same,Observations of solvent solution,"[1]; 3% lactam in MMB, Magnetic stirring 1 hour",No solubility
same,Observations of solvent solution: % of lactam solubilised,"[1]; 3% lactam in PEG-40 Hydrogenated Castor Oil, 20 minutes sonication, temp reached 60-70 C.",~75% of lactam
same,Observations of solvent solution: % of lactam solubilised,"[1]; 3% lactam in PEG-40 Hydrogenated Castor Oil, 60 minutes sonication, temp reached 80 C.",~75% of lactam
same,Observations of solvent solution: % of lactam solubilised,"[1]; 3% lactam in PEG-40 Hydrogenated Castor Oil, Magnetic stirring 1 hour",~25% of lactam
same,Observations of solvent solution: % of lactam solubilised,"[1]; 3% lactam in PEG-60 Hydrogenated Castor Oil, Magnetic stirring 1 hour",~10% of lactam
same,Observations of solvent solution,"[1]; 3% lactam in Pentylene Glycol, Magnetic stirring 1 hour",No solubility
same,Observations of solvent solution: % of lactam solubilised,"[1]; 3% lactam in Polysorbate 20, 20 minutes sonication, temp reached 60-70 C.",~50% of lactam
same,Observations of solvent solution: % of lactam solubilised,"[1]; 3% lactam in Polysorbate 20, 60 minutes sonication, temp reached 90 C.",~60-70% of lactam
same,Observations of solvent solution: % of lactam solubilised,"[1]; 3% lactam in Polysorbate 20, Magnetic stirring 1 hour",~25% of lactam
same,Observations of solvent solution: % of lactam solubilised,"[1]; 3% lactam in Polysorbate 60, Magnetic stirring 1 hour, 50 C.",~10% of lactam
same,Observations of solvent solution: % of lactam solubilised,"[1]; 3% lactam in Polysorbate 80, Magnetic stirring 1 hour",~10% of lactam
same,Observations of solvent solution: % of lactam solubilised,"[1]; 3% lactam in Sisterna SP30-C, Magnetic stirring 1 hour",~5% of lactam
same,Observations of solvent solution: % of lactam solubilised,"[1]; 3% lactam in Sisterna SP50-C, Magnetic stirring 1 hour",~5% of lactam
same,Observations of solvent solution: % of lactam solubilised,"[1]; 3% lactam in Sisterna SP70-C, Magnetic stirring 1 hour",~5% of lactam
same,Observations of solvent solution: % of lactam solubilised,"[1]; 3% lactam in Sorbitan Oleate, Magnetic stirring 1 hour, 50 C.",~5% of lactam
same,Observations of solvent solution: % of lactam solubilised,"[1]; 4.2% lactam in PEG-40 Hydrogenated Castor Oil, 20 minutes sonication, temp reached 60-70 C., very dark colour",50% of lactam
same,Observations of solvent solution: % of lactam solubilised,"[1]; 4.2% lactam in PEG-40 Hydrogenated Castor Oil, 60 minutes sonication, temp reached 80 C., very dark colour",75% of lactam
same,Observations of solvent solution: % of lactam solubilised,"[1]; 4.2% lactam in PEG-40 Hydrogenated Castor Oil, 60 minutes sonication, temp reached 110 C., very dark colour",75% of lactam
same,Observations of solvent solution: % of lactam solubilised,"[1]; 4.2% lactam in PEG-40 Hydrogenated Castor Oil, Magnetic stirring 24 hours",~25% of lactam
same,Observations of solvent solution: % of lactam solubilised,"[1]; 4.2% lactam in PEG-40 Hydrogenated Castor Oil, Magnetic stirring 48 hours",~25% of lactam
same,Observations of solvent solution: % of lactam solubilised,"[1]; 4.2% lactam in PEG-40 Hydrogenated Castor Oil, initially stirred for 2, 4 and 6 hours",≤ 25% solubilised).
same,Observations of solvent solution: % of lactam solubilised,"[1]; 4.2% lactam in Polysorbate 20, 20 minutes sonication, temp reached 60-70 C.",~50% of lactam
same,Observations of solvent solution: % of lactam solubilised,"[1]; 4.2% lactam in Polysorbate 20, 60 minutes sonication, temp reached 90 C.",~60-70% of lactam
same,Observations of solvent solution: % of lactam solubilised,"[1]; 4.2% lactam in Polysorbate 20, Magnetic stirring 24 hours",~25% of lactam
same,Observations of solvent solution: % of lactam solubilised,"[1]; 4.2% lactam in Polysorbate 20, Magnetic stirring 48 hours",~25% of lactam
same,Observations of solvent solution: % of lactam solubilised,"[1]; 4.2% lactam in Polysorbate 20, initially stirred for 2, 4 and 6 hours",≤ 25% solubilised).
same,Observations of solvent solution: % of lactam solubilised,"[1]; PEG-40 Hydrogenated Castor Oil table: 3% lactam, Magnetic stirring 1 hour",~25% of lactam
same,Observations of solvent solution: % of lactam solubilised,"[1]; Polysorbate 20 table: 3% lactam, Magnetic stirring 1 hour",~25% of lactam
same,colour change of lactam solution,[1]; when samples exceeded 50 C,dark brown colour
same,colour change of lactam solution,"[1]; when the temperature reached 65 C, Polysorbate-20 and PEG-40 Hydrogenated Castor Oil variants only",virtually opaque
same,Result (inhibition of bacterial respiration versus water control),S. epidermidis,82.5%
same,Observations of solvent solution: % of lactam solubilised,[2],~75% of lactam
same,Observations when added to base @ 5%,[3],Cloudy in solution
